Values joined by “and” are separate entries in the source; they are usually repeats but may differ in a detail not shown here. Equal entries are not always repeated.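 Briefly, cells in 96-well plates were exposed to five compound concentrations for 48 h, and endpoints were estimated by linear interpolation. GI50 = concentration required for 50% inhibition of growth. At the TGI there is no net growth.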
Assays:
Experiment in all cases: NCI tumour cell line growth inhibition, 48 h
HL-60(TB) leukemia = system: HL-60(TB) leukemia
M14 melanoma = system: M14 melanoma
MALME-3M melanoma = system: MALME-3M melanoma
NCI-H226 lung = system: NCI-H226 lung
NCI-H460 lung = system: NCI-H460 lung
RPMI-8226 leukemia = system: RPMI-8226 leukemia
RXF 393 renal = system: RXF 393 renal
SK-MEL-2 melanoma = system: SK-MEL-2 melanoma
SK-MEL-28 melanoma = system: SK-MEL-28 melanoma
U251 CNS = system: U251 CNS

Compound	GI50 (HL-60(TB) leukemia)	TGI (HL-60(TB) leukemia)	GI50 (M14 melanoma)	TGI (M14 melanoma)	GI50 (MALME-3M melanoma)	TGI (MALME-3M melanoma)	GI50 (NCI-H226 lung)	TGI (NCI-H226 lung)	GI50 (NCI-H460 lung)	TGI (NCI-H460 lung)	GI50 (RPMI-8226 leukemia)	TGI (RPMI-8226 leukemia)	GI50 (RXF 393 renal)	TGI (RXF 393 renal)	GI50 (SK-MEL-2 melanoma)	TGI (SK-MEL-2 melanoma)	GI50 (SK-MEL-28 melanoma)	TGI (SK-MEL-28 melanoma)	GI50 (U251 CNS)	TGI (U251 CNS)
O=C(Nc1ccc(Cl)cc1F)c1cc(I)ccc1O	1.66 µM	6.87 µM	0.711 µM	5.57 µM	0.608 µM	3.87 µM	1.94 µM	7.14 µM	1.5 µM	14.2 µM	0.737 µM	5.01 µM	1.57 µM	5.2 µM	0.836 µM	4.25 µM	0.487 µM	3.38 µM	1.64 µM	21.2 µM
COc1cnc2c(c1)C(=O)c1c-2n(CCCN2CCC(O)CC2)c(=O)c2cc(F)ccc12	0.293 µM	0.96 µM	0.254 µM	1.63 µM	0.298 µM	1.2 µM	0.135 µM	0.307 µM	0.0444 µM	0.221 µM	0.109 µM	0.63 µM	0.217 µM	0.838 µM	0.61 µM	2.86 µM	1.39 µM	9.8 µM	0.0814 µM	0.453 µM
CN1CCN(Cc2ccc(NC(=O)c3cncc(C#Cc4cncc5ncccc45)c3)cc2C(F)(F)F)CC1	0.303 µM	2.02 µM	0.961 µM	5.09 µM	0.284 µM	1.05 µM	0.467 µM	11.8 µM	2.5 µM	11.8 µM	3.59 µM	22.2 µM	1.77 µM	6.46 µM	0.542 µM	2.48 µM	1.23 µM	10.7 µM	9.49 µM	21.8 µM
O=C1c2ccccc2C(=Cc2ccccc2)c2ccccc21	2.72 µM	62.8 µM	2.21 µM	7.86 µM	6.2 µM	23.4 µM	4.99 µM	20.4 µM	2.98 µM	15 µM	3 µM	14.6 µM	3.06 µM	9.63 µM	1.78 µM	4.95 µM	4.23 µM	17.4 µM	2.97 µM	9.23 µM
O=C(O)CCC(=O)c1ccc2ccc3cccc4ccc1c2c34		> 100 µM		> 100 µM		> 100 µM		> 100 µM		> 100 µM		> 100 µM		> 100 µM		> 100 µM		> 100 µM		> 100 µM
COC(=O)[C@]12CC[C@@H](C)[C@H](C)[C@@H]1C1=CC[C@@H]3[C@@]4(C)C(C=O)=C[C@@](C)(COC(=O)c5ccco5)[C@@H]4C(=O)C[C@@]3(C)[C@]1(C)CC2	3.58 µM	15.4 µM	0.286 µM	> 100 µM	0.0359 µM	0.256 µM	2.63 µM	12.6 µM	3.92 µM	> 100 µM	2.06 µM	6.68 µM	3.35 µM	35.3 µM	0.5 µM	2.78 µM	0.0524 µM	> 100 µM	4.83 µM	> 100 µM
CN(C)c1ccc(/C=C(\C#N)c2nc3ccccc3n2C)cc1	3.77 µM	> 31.4 µM	2.42 µM	> 64.9 µM	6.17 µM	60.6 µM	9.22 µM	> 81.3 µM	3.2 µM	17.9 µM	2.85 µM	14.7 µM	2.77 µM	> 24.8 µM	3.9 µM	68.5 µM	8.8 µM	> 78.2 µM	3.72 µM	> 100 µM
O=C([O][Hg][CH2]C1COC([CH2][Hg][O]C(=O)c2ccccc2)CO1)c1ccccc1 (stereo unspecified)	1.68 µM and 1.82 µM	4.54 µM and 21.6 µM	8.68 µM and 2.52 µM	19.8 µM and 4.89 µM	2.06 µM and 1.7 µM	3.81 µM and 3.23 µM	20.2 µM and 6.31 µM	39.1 µM and 34 µM	17.3 µM and 3.49 µM	33.4 µM and 21.6 µM	1.97 µM and 2.14 µM	8.46 µM and 6.07 µM	8.88 µM and 1.45 µM	22.8 µM and 2.76 µM	12.8 µM and 1.84 µM	25.7 µM and 3.75 µM	15.9 µM and 1.75 µM	29.5 µM and 3.19 µM	4.46 µM and 13.5 µM	10.8 µM and 27 µM
COc1ccc2c(c1)C(=O)c1c-2c(Nc2ccc(C(C)=O)cc2)nc2ccccc12	> 100 µM	> 100 µM	64.6 µM	> 100 µM	49.6 µM	> 100 µM	38.3 µM	> 100 µM	85.1 µM	> 100 µM	89.5 µM	> 100 µM	2.54 µM	9.2 µM	97.7 µM	> 100 µM	52.2 µM	> 100 µM	13.5 µM	40.6 µM
CC(C)(C)CC(C)(C)c1cc2c(O)c(c1)Cc1cc(C(C)(C)CC(C)(C)C)cc(c1O)Cc1cc(C(C)(C)CC(C)(C)C)cc(c1O)Cc1cc(C(C)(C)CC(C)(C)C)cc(c1O)Cc1cc(C(C)(C)CC(C)(C)C)cc(c1O)Cc1cc(C(C)(C)CC(C)(C)C)cc(c1O)C2		> 100 µM		> 100 µM		> 100 µM				> 100 µM		> 100 µM		> 100 µM		> 100 µM		> 100 µM		> 100 µM
C[C@@H]1CC[C@@H]2[C@@H]1[C@H](OC(=O)/C=C/c1ccccc1)[C@]1(C3CCCCC3)C[C@@H](NC(=O)CO)[C@@]2(C)O1	21.5 µM	40.4 µM	18.6 µM	35.6 µM	16.3 µM	33 µM	16.7 µM	32.4 µM	16.6 µM	32.8 µM	20.8 µM	44.4 µM	3.29 µM	13.8 µM	16.8 µM	32.8 µM	16.9 µM	33 µM	18.6 µM	34 µM
O=C(c1cc2ccccc2o1)N(Cc1ccccc1)c1ccccc1		40.6 µM		38.9 µM		59.8 µM		34.9 µM		78.6 µM		49.8 µM		43 µM		> 100 µM		87 µM		
CO/N=C(\C)c1cccc(Nc2cc(-c3ccccc3)nc3c(O)cccc23)c1	23 µM	> 100 µM	3.13 µM	18.2 µM	12.5 µM	35.4 µM	19.8 µM	> 100 µM			2.91 µM	8.59 µM	3.69 µM	14.9 µM	5.76 µM	> 100 µM	12.4 µM	43.5 µM	4.38 µM	16.7 µM

Source: PubChem BioAssay (NCI)
